Assay results reported in US12030884B2, “Pyrazoloquinoline KRAS inhibitors” (INCYTE CORPORATION, priority 2021, dated 2024).

Key:
KRAS G12C = KRAS G12C (Homo sapiens, UniProt P01116, G12C); assay: GDP-GTP exchange assay (KRAS_G12C exchange assay); assay type: biochemical; details: bodipy-loaded KRAS G12C, SOS1, GppNHp; 2 hours pre-incubation with inhibitor; read-out: G12C_exchange
Method: The inhibitor potency of the exemplified compounds was determined in a fluorescence based guanine nucleotide exchange assay, which measures the exchange of bodipy-GDP (fluorescently labeled GDP) for GppNHp (Non-hydrolyzable GTP analog) to generate the active state of KRAS in the presence of SOS1 (guanine nucleotide exchange factor). Inhibitors were serially diluted in DMSO and a volume of 0.1 μL was transferred to the wells of a black low volume 384-well plate. 5 μL/well volume of bodipy-loaded KRAS G12C diluted to 5 nM in assay buffer (25 mM Hepes pH 7.5, 50 mM NaCl, 10 mM MgCl2 and 0.01% Brij-35) was added to the plate and pre-incubated with inhibitor for 2 hours at ambient temperature. Appropriate controls (enzyme with no inhibitor or with a G12C inhibitor (AMG-510)) were included on the plate. The exchange was initiated by the addition of a 5 μL/well volume containing 1 mM GppNHp and 300 nM SOS1 in assay buffer. The 10 μL/well reaction concentration of the bodipy-loaded KRAS G12C, GppNHp, and SOS1 were 2.5 nM, 500 uM, and 150 nM, respectively. The reaction plates were incubated at ambient temperature for 2 hours, a time estimated for complete GDP-GTP exchange in the absence of inhibitor. For the KRAS G12D and G12V mutants, similar guanine nucleotide exchange assays were used with 2.5 nM as final concentration for the bodipy loaded KRAS proteins and with 4 hours and 3 hours incubation after adding GppNHp-SOS1 mixture for G12D and G12V respectively. A cyclic peptide described to selectively bind G12D mutant (Sakamoto et al., BBRC 484.3 (2017), 605-611) or internal compounds with confirmed binding were used as positive controls in the assay plates. Fluorescence intensities were measured on a PheraStar plate reader instrument (BMG Labtech) with excitation at 485 nm and emission at 520 nm.
Either GraphPad prism or Genedata Screener SmartFit was used to analyze the data. The IC50 values were derived by fitting the data to a four parameter logistic equation producing a sigmoidal dose-response curve with a variable Hill coefficient.

[1] = system: pERK in KRAS G12C cells (MIA PaCa-2, NCI-H358); assay: Cellular pERK HTRF assay (KRAS_G12C pERK assay); assay type: cell-based; details: 4 hours incubation, read-out: G12C_pERK
Method: MIA PaCa-2 (KRAS G12C; ATCC® CRL-1420), NCI-H358 (KRAS G12C; ATCC® CRL-5807), A427 (KRAS G12D; ATCC® HTB53), HPAFII (KRAS G12D; ATCC® CRL-1997), YAPC (KRAS G12V; DSMZ ACC382), SW480 (KRAS G12V; ATCC® CRL-228) and NCI-H838 (KRAS WT; ATCC® CRL-5844) cells are purchased from ATCC and maintained in RPMI 1640 media supplemented with 10% FBS (Gibco/Life Technologies). The cells are plated at 5000 cells per well (8 uL) into Greiner 384-well low volume, flat-bottom, and tissue culture treated white plates and incubated overnight at […], 5% CO2. The next morning, test compound stock solutions are diluted in media at 3× the final concentration and 4 uL are added to the cells, with a final concentration of 0.1% of DMSO. The cells are incubated with the test compounds for 4 hours (G12C and G12V) or 2 hrs (G12D) at 37° C., 5% CO2. Four uL of 4×lysis buffer with blocking reagent (Cisbio) are added to each well and plates are rotated gently (300 rpm) for 30 minutes at room temperature. Four uL per well of Cisbio anti Phospho-ERK 1/2 d2 is mixed with anti Phospho-ERK 1/2 Cryptate (1:1), and added to each well, incubated overnight in the dark at room temperature. Plates are read on the Pherastar plate reader at 665 nm and 620 nm wavelengths. Data are analyzed in Genedata Screener using SmartFit for IC50 values.

[2] = system: pERK1/2 in MIA PaCa-2 cells (KRAS G12C); assay: Whole blood pERK1/2 HTRF assay (KRAS_G12C WB pERK assay); assay type: cell-based; details: Homo sapiens, compound in whole blood, 4 hours, read-out: G12C_WB_pERK
Method: MIA PaCa-2 cells (KRAS G12C; ATCC® CRL-1420), HPAF-II (KRAS G12D; ATCC® CRL-1997) and YAPC (KRAS G12V; DSMZ ACC382) are maintained in RPMI 1640 with 10% FBS (Gibco/Life Technologies). For MIA PaCa-2 assay, cells are seeded into 96 well tissue culture plates (Corning #3596) at 25000 cells per well in 100 uL media and cultured for 2 days at 37° C., 5% CO2 before the assay. For HPAF-II and YAPC assay, cells are seeded in 96 well tissue culture plates at 50000 cells per well in 100 uL media and cultured for 1 day before the assay. Whole Blood are added to the 1 uL dots of compounds (prepared in DMSO) in 96 well plates and mixed gently by pipetting up and down so that the concentration of the compound in blood is 1× of desired concentration, in 0.5% DMSO. The media is aspirated from the cells and 50 uL per well of whole blood with test compound is added and incubated for 4 hours for MIA PaCa and YAPC assay; or 2 hours for HPAF-II assay, respectively at 37° C., 5% CO2. After dumping the blood, the plates are gently washed twice by adding PBS to the side of the wells and dumping the PBS from the plate onto a paper towel, tapping the plate to drain well. Fifty ul/well of 1×lysis buffer #1 (Cisbio) with blocking reagent (Cisbio) and Benzonase nuclease (Sigma Cat #E1014-5KU, 1: 10000 final concentration) is then added and incubated at room temperature for 30 minutes with shaking (250 rpm). Following lysis, 16 uL of lysate is transferred into 384-well Greiner small volume white plate using an Assist Plus (Integra Biosciences, NH). Four uL of 1:1 mixture of anti Phospho-ERK 1/2 d2 and anti Phospho-ERK 1/2 Cryptate (Cisbio) is added to the wells using the Assist Plus and incubated at room temperature overnight in the dark. Plates are read on the Pherastar plate reader at 665 nm and 620 nm wavelengths. Data are analyzed in Genedata Screener using SmartFit for IC50 values.

[3] = Human whole blood stability; assay type: in vitro ADME; details: percent remaining, 1 μM, 37° C.
Method: The whole blood stability of the exemplified compounds was determined by LC-MS/MS. The 96-Well Flexi-Tier™ Block (Analytical Sales & Services, Inc, Flanders, NJ) was used for the incubation plate containing 1.0 mL glass vials with 0.5 mL of blood per vial (pooled gender, human whole blood sourced from BIOIVT, Hicksville, NY or similar). Blood was pre-warmed in water bath to 37° C. for 30 minutes. 96-deep well analysis plate was prepared with the addition of 100 μL ultrapure water/well. 50 μL chilled ultrapure water/well was added to 96-deep well sample collection plate and covered with a sealing mat. 1 μL of 0.5 mM compound working solution (DMSO:water) was added to the blood in incubation plate to reach final concentrations of 1 μM, mixed by pipetting thoroughly and 50 μL was transferred 50 into the T=0 wells of the sample collection plate. Blood was allowed to sit in the water for 2 minutes and then 400 μL stop solution/well was added (acetonitrile containing an internal standard). The incubation plate was placed in the Incu-Shaker CO2 Mini incubator (Benchmark Scientific, Sayreville, NJ) at 37° C. with shaking at 150 rpm. At 1, 2 and 4-hr, the blood samples were mixed thoroughly by pipetting and 50 μL is transferred into the corresponding wells of the sample collection plate. Blood was allowed to sit in the water for 2 minutes and then 400 μL of stop solution/well was added. The collection plate was sealed and vortexed at 1700 rpm for 3 minutes (VX-2500 Multi-Tube Vortexer, VWR International, Radnor, PA), and samples were then centrifuged in the collection plate at 3500 rpm for 10 minutes (Allegra X-14R Centrifuge Beckman Coulter, Indianapolis, IN). 100 μL of supernatant/well was transferred from the sample collection plate into the corresponding wells of the analysis plate. The final plate was vortexed at 1700 rpm for 1 minute and analyze samples by LC-MS/MS. The peak area ratio of the 1, 2, and 4 hr samples relative to T=0 was used to determine the percent remaining. The natural log of the percent remaining versus time was used determine a slope to calculate the compounds half-life in blood (t1/2=0.693/slope).

Sequence of KRAS G12C (P01116 1-188 isoform P01116-2 G12C): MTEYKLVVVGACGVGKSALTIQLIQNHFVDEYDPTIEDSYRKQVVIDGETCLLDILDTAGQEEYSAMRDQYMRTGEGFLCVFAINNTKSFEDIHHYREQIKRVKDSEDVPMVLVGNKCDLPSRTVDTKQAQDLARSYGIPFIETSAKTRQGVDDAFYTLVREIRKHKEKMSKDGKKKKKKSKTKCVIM

Row | Compound | IC50 (KRAS G12C) [nM] | IC50 [1] [nM] | IC50 [2] [nM] | Human whole blood stability at 4 hr [3]
1 | C=C(F)C(=O)N1CC[C@H](n2ncc3c(N4CC(N(C)CC)C4)nc4c(F)c(-c5c(C)c(C)cc6[nH]ncc56)c(Cl)cc4c32)C[C@H]1CC#N (single isomer, unassigned) [Example 4b] | 1000 to 5000 |  |  | 
2 | C=C(F)C(=O)N1CC[C@H](n2ncc3c(O[C@@H](C)[C@@H]4CCCN4C)nc4c(F)c(-c5cccc6cccc(C#N)c56)c(Cl)cc4c32)C[C@H]1CC#N (single isomer, unassigned) [Example 5a] | 100 to 1000 |  |  | 
3 | COC/C=C/C(=O)N1CC[C@H](n2ncc3c(O[C@@H](C)[C@@H]4CCCN4C)nc4c(F)c(-c5cccc6cccc(C#N)c56)c(Cl)cc4c32)C[C@H]1CC#N [Example 6b, 8-(8-chloro-1-((2S,4S)-2-(cyanomethyl)-1-((E)-4-methoxybut-2-enoyl)piperidin-4-yl)-6-fluoro-4-((S)-1-((S)-1-methylpyrrolidin-2-yl)ethoxy)-1H-pyrazolo[4,3-c]quinolin-7-yl)-1-naphthonitrile] |  | ≤ 100 | ≤ 100 | ††† (WBS >90%)
4 | C=C(F)C(=O)N1CC[C@H](n2ncc3c(O[C@@H](C)[C@@H]4CCCN4C)nc4c(F)c(-c5nccc6cccc(C#N)c56)c(Cl)cc4c32)C[C@H]1CC#N (single isomer, unassigned) [Example 3b] | 100 to 1000 |  |  | 
5 | C=C(F)C(=O)N1CC[C@H](n2ncc3c(O[C@@H](C)[C@@H]4CCCN4C)nc4c(F)c(-c5nccc6cccc(C#N)c56)c(Cl)cc4c32)C[C@H]1CC#N (single isomer, unassigned) [Example 3a] | ≤ 100 | ≤ 100 | ≤ 100 | ††† (WBS >90%)

Other lines, results leading:

Row | IC50 (KRAS G12C) [nM] | IC50 [1] [nM] | IC50 [2] [nM] | Human whole blood stability at 4 hr [3] | Compound
6 | ≤ 100 | ≤ 100 | ≤ 100 | ††† (WBS >90%) | COC/C=C/C(=O)N1CC[C@H](n2ncc3c(O[C@@H](C)[C@@H]4CCCN4C)nc4c(F)c(-c5nccc6cccc(C#N)c56)c(Cl)cc4c32)C[C@H]1CC#N [Example 2a, 1-(8-chloro-1-((2S,4S)-2-(cyanomethyl)-1-((E)-4-methoxybut-2-enoyl)piperidin-4-yl)-6-fluoro-4-((S)-1-((S)-1-methylpyrrolidin-2-yl)ethoxy)-1H-pyrazolo[4,3-c]quinolin-7-yl)isoquinoline-8-carbonitrile]
7 | ≤ 100 | ≤ 100 | ≤ 100 | ††† (WBS >90%) | CC#CC(=O)N1CC[C@H](n2ncc3c(O[C@@H](C)[C@@H]4CCCN4C)nc4c(F)c(-c5nccc6cccc(C#N)c56)c(Cl)cc4c32)C[C@H]1CC#N (single isomer, unassigned) [Example 1a]
8 | ≤ 100 |  |  |  | COC/C=C/C(=O)N1CC[C@H](n2ncc3c(O[C@@H](C)[C@@H]4CCCN4C)nc4c(F)c(-c5cccc6cccc(C#N)c56)c(Cl)cc4c32)C[C@H]1CC#N [Example 6a, 8-(8-chloro-1-((2S,4S)-2-(cyanomethyl)-1-((E)-4-methoxybut-2-enoyl)piperidin-4-yl)-6-fluoro-4-((S)-1-((S)-1-methylpyrrolidin-2-yl)ethoxy)-1H-pyrazolo[4,3-c]quinolin-7-yl)-1-naphthonitrile]
9 | ≤ 100 | ≤ 100 | ≤ 100 |  | C=C(F)C(=O)N1CC[C@H](n2ncc3c(O[C@@H](C)[C@@H]4CCCN4C)nc4c(F)c(-c5cccc6cccc(C#N)c56)c(Cl)cc4c32)C[C@H]1CC#N (single isomer, unassigned) [Example 5b]
10 | ≤ 100 | ≤ 100 | ≤ 100 | †† (WBS >70% but ≤90%) | CC#CC(=O)N1CC[C@H](n2ncc3c(O[C@@H](C)[C@@H]4CCCN4C)nc4c(F)c(-c5cccc6cccc(C#N)c56)c(C)cc4c32)C[C@H]1CC#N (single isomer, unassigned) [Example 7]
11 | ≤ 100 |  |  |  | CC#CC(=O)N1CC[C@H](n2ncc3c(O[C@@H](C)[C@@H]4CCCN4C)nc4c(F)c(-c5nccc6cccc(C#N)c56)c(Cl)cc4c32)C[C@H]1CC#N (single isomer, unassigned) [Example 1b]
12 | ≤ 100 | ≤ 100 | ≤ 100 | †† (WBS >70% but ≤90%) | C=C(F)C(=O)N1CC[C@H](n2ncc3c(N4CC(N(C)CC)C4)nc4c(F)c(-c5c(C)c(C)cc6[nH]ncc56)c(Cl)cc4c32)C[C@H]1CC#N (single isomer, unassigned) [Example 4a]
